According to publication PMC9226124, “Macrocycle-stabilization of its interaction with 14-3-3 increases plasma membrane localization and activity of CFTR” (Nature Communications, 2022):
Values joined by “and” are separate entries in the source; they are usually repeats but may differ in a detail not shown here. Equal entries are not always repeated.

Assays:
[1] = biological target: T1, 3HA-tagged F508del-CFTR in BHK cells (Homo sapiens, UniProt P13569, DEL508-508); assay: CFTR trafficking assay (surface expression); format: cell-based, hamster; conditions: for F508del-CFTR trafficking towards the plasma membrane: BHK cells, 24 h, 10 μM compound; for F508del-CFTR surface expression signal (Fig5a): individual replicates
T1 construct: expressed in transfected cells; host or cells: baby hamster kidney (BHK) cells (Carlile et al. 2007)
Procedure: (§1) Twelve (12) validated hit compounds from the initial screening and focused validation library were tested for their effect on F508del-CFTR trafficking. Baby hamster kidney (BHK) cells expressing 3HA-tagged F508del-CFTR were treated for 24 h with 10 μM compound. After fixation of the cells, a combination of mouse monoclonal anti-HA antibody and anti-mouse IgG conjugated with FITC was used to detect F508del-CFTR that had trafficked to the plasma membrane as described previously. […] Additionally, a fluorescence imaging plate reader (FLIPR) Membrane Potential (FMP) assay was performed. This assay measures real-time membrane potential changes associated with ion channel activation and ion transporter proteins. F508del-CFTR expressing BHK cells were incubated for 24 h with 20 μM compound before treatment with the potentiator genistein, FMP dye, and activator forskolin. The fluorescence intensity is thus a measure for the function of the CFTR protein in the plasma membrane of these cells. The F508del-CFTR corrector VX-809 (lumacaftor) and the triple combination Trikafta® were used as positive controls in this assay. […] Another cellular assay was performed with the Ussing Chamber, which detects and quantifies transport of ions across epithelial tissue. F508del-CFTR expressing cystic fibrosis epithelial (CFBE) cells were treated for 18 h with 20 μM CY007424. After forskolin and genistein stimulation, the short-circuit current of the cells was measured.
(§2) Fig. 5 Cellular activity of macrocycles stabilizing the 14-3-3/CFTR PPI. a Surface expression of 3HA-tagged F508del-CFTR in BHK cells incubated for 24 h with 10 μM compound and treated with mouse monoclonal anti-HA antibody and anti-mouse IgG conjugated with FITC (n = 4 or n = 3 biological replicates, bars represent the mean). b, c FLIPR Membrane Potential (FMP) assay of F508del-CFTR expressing BHK cells treated for 24 h with the macrocycles (b, n = 6 biological replicates, bars represent the mean) or with CY007424 and/or VX-809 or Trikafta®, with and without CFTR inhibitor INH172 (c, n = 4 biological replicates, bars represent the mean). d Using chamber experiment of F508del-CFTR expressing CFBE cells treated for 18 h with CY007424, VX-809, or Trikafta® or in combinations. CFTR activity is assayed by measurement of short-circuit current of cells after stimulation by forskolin and the potentiator genistein (n = 3 or n = 6 biological replicates, bars represent the mean). Source data are provided as a Source Data file.
The trafficking assay was performed as previously described by Carlile et al.[21]. In brief, 3HA-tagged F508del-CFTR expressing baby hamster kidney (BHK) cells (cells earlier described by Carlile et. al. 2007)[21] were seeded in 96-well plates (Corning half area, black-sided, clear bottom) at 15,000 cells per well. After 24 h incubation at 37 °C, the cells were treated with 10 μM of compound for 24 h (final DMSO concentration 1% v/v). The cells were fixated with 4% paraformaldehyde, washed with PBS, and then blocked with fetal bovine serum (5% in PBS). Mouse monoclonal anti-HA antibody (H9658 Sigma, 1:150 dilution in PBS) was incubated overnight, and, after three washes with PBS, the background fluorescence was measured in a plate reader (488 nm excitation, 510 nm emission). The secondary antibody anti-mouse IgG conjugated with FITC (F5262 Sigma, 1:100 dilution in PBS) was incubated for 1 h, the cells were washed three times with PBS and analyzed in the plate reader again. Background fluorescence was subtracted from the signal, after which the signal was normalized to the DMSO control and wt-CFTR expressing cells.

[2] = biological target: T2, F508del-CFTR in BHK cells (Homo sapiens, UniProt P13569, DEL508-508); assay: FLIPR membrane potential (FMP) assay; format: cell-based, hamster; conditions: for CFTR function (FMP assay): BHK cells, 24 h, 20 μM compound, genistein, forskolin; for FMP assay signal (Fig5c) / FMP assay signal (Fig5b): individual replicates
T2 construct: expressed in transfected cells; host or cells: baby hamster kidney (BHK) cells
Procedure: as §1, §2
The FLuorescence Imaging Plate Reader (FLIPR) Membrane Potential (FMP) assay is based on the technique developed by Van Goor et al.[30] F508del-CFTR expressing baby hamster kidney (BHK) cells were incubated with the compounds for 24 h at 37 °C. The growth medium was removed from the cells by inverting the plate and FMP dye (Molecular Devices, Part #R8042) including the potentiator genistein (Sigma, G6649) was added back in 70 μl of low Cl^- containing buffer (160 mM NaGluconate, 4.5 mM KCl, 2 mM CaCl2, 1 mM MgCl2, 10 mM D-Glucose, 10 mM HEPES (pH7.4)). The plates were incubated for 5 min at RT before activation of CFTR in the plate reader (SynergyMX) with the addition of 14 µL of FMP dye in low Cl^- buffer containing 6x forskolin (Sigma, F6886) following a 2 min baseline read. Fluorescence intensity was monitored for 5 min following CFTR activation. Reported is the rate of fluorescence intensity change over time.

T2 sequence (P13569 with tags, fused parts or gaps DEL508-508): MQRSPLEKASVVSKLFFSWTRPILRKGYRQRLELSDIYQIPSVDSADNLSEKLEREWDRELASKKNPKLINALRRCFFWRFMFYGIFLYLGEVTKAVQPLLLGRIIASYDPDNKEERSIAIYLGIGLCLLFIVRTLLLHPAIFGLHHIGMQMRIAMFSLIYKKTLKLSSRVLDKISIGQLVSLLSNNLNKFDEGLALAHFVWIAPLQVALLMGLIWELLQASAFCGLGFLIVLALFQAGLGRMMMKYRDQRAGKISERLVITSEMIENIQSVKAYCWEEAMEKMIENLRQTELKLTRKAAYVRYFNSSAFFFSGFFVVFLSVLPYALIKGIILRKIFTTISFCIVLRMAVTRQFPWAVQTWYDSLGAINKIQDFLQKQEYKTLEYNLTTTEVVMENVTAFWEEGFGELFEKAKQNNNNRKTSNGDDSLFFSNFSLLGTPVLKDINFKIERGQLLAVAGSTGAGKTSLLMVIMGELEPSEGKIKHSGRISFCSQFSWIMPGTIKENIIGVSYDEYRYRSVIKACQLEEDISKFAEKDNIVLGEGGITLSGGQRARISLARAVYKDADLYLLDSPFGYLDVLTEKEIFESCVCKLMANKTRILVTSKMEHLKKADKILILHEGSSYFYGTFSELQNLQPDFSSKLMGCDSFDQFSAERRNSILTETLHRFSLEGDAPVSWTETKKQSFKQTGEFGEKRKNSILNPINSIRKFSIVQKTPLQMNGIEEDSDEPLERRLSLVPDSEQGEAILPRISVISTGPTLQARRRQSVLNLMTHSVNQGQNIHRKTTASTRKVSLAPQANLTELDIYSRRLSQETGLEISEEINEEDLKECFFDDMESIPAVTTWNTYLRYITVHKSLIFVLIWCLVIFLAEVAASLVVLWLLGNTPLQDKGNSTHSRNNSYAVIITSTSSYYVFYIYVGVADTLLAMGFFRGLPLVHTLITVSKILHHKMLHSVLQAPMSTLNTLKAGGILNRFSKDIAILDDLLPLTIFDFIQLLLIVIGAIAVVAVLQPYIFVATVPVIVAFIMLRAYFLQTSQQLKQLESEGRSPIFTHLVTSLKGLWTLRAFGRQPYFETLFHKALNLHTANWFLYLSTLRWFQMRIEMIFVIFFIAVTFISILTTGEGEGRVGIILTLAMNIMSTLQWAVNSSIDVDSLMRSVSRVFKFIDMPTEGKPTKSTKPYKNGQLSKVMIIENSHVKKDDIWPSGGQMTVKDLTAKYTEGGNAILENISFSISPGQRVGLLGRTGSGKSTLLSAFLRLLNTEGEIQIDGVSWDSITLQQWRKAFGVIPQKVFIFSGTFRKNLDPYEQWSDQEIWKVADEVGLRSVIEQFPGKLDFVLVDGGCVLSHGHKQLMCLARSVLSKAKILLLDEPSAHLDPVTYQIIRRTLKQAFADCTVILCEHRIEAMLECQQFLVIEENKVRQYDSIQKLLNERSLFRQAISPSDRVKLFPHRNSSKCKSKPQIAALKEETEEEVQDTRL
T1 sequence (P13569 with tags, fused parts or gaps DEL508-508): as above

Row | CFTR function (FMP assay) [2] | Compound | F508del-CFTR trafficking towards the plasma membrane [1] | F508del-CFTR surface expression signal (Fig5a) [1] | FMP assay signal (Fig5c) ([2]; Compound alone) | FMP assay signal (Fig5c) ([2]; With CFTR-inh172) | FMP assay signal (Fig5b) [2]
1 | clear corrector function | N=C(N)NCCCC1NCc2ccccc2Sc2ccccc2CNC(=O)C(Cc2ccc(O)cc2)NC(=O)C(CCCN)NC1=O (centres unmarked) [CY007424] | strongest increase | 1698.78 and 1774.35 and 1725.92 and 1889.17 | 416.179 and 423.464 and 390.429 and 379.429 | 23.036 and 3.107 and 4.393 and -13.071 | 405.536 and 378.214 and 384.321 and 349.393 and 433.679 and 385.071
2 |  | N=C(N)NCCCC1NC(=O)C(CCCCN)NCc2ccccc2Sc2ccccc2CNC(=O)C(Cc2ccc(O)cc2)NC1=O (centres unmarked) [CY001951] |  | 85.2534 and 218.237 and 180.048 and 282.523 |  |  | 112.821 and 82.214 and 93.607 and 85.25 and 102.571 and 92.764
3 |  | N=C(N)NCCCC1NC(=O)C(CCC(N)=O)NC(=O)C(CCCNC(=N)N)NC(=O)C2Cc3ccccc3CN2Cc2cccc(c2)-c2ccccc2CNC1=O (centres unmarked) [CY007493] |  | 225.716 and 325.901 and 303.406 and 383.168 |  |  | 74.143 and 78.429 and 43.607 and 72 and 65.679 and 76.179
4 | inactive | CC1NC(=O)C(CCCNC(=N)N)NC(=O)C2CCCN2Cc2cccc(c2)-c2ccccc2CNC(=O)C(CCCNC(=N)N)NC1=O (centres unmarked) [CY007476] | increase of F508del-CFTR trafficking towards the plasma membrane | 1288.45 and 1177.16 and 1241.43 and 1259.33 |  |  | 153.964 and 148.571 and 156.714 and 190.464 and 184.357 and 154.25
5 |  | N=C(N)NCCCC1NC(=O)C(CCC(N)=O)NC(=O)C(CCCNC(=N)N)NC(=O)C2CCCN2Cc2ccccc2Sc2ccccc2CNC1=O (centres unmarked) [CY007502] |  | 344.243 and 408.371 and 366.875 and 405.395 |  |  | 13.036 and 27.929 and 39.536 and 44.036 and 44.893 and 22.781
6 |  | NCCCC1NCc2ccccc2Sc2ccccc2CNC(=O)C(Cc2c[nH]c3ccccc23)NC(=O)C(Cc2ccccc2)NC1=O (centres unmarked) [CY007345] |  | -42.2555 and -20.6074 and 61.7766 and 72.7311 |  |  | 99.75 and 93 and 100.071 and 96.107 and 84.214 and 89.179
7 |  | C=CC(C)(C)OC[C@H]1O[C@H](O[C@@H]2C3=C([C@H](C)COC(C)=O)C[C@H](O)[C@]3(C)/C=C3/[C@@H](COC)CC[C@H]3[C@@H](C)[C@H]2O)[C@H](O)[C@@H](OC(C)=O)[C@@H]1O [FC-A, fusicoccin A, reference compound] |  | 1016.54 and 1064.51 and 1045.89 | 170.429 and 204.929 and 173.75 and 189.679 | 23.571 and 18.107 and 23.429 and 27.536 | 224.714 and 247.893 and 215.429 and 224.357 and 209.61 and 238.08
8 |  | NCCCCC1NCc2ccccc2Sc2ccccc2CNC(=O)C(Cc2cccc(Cl)c2)NC(=O)C(Cc2ccc(O)cc2)NC1=O (centres unmarked) [CY007288] |  | 916.74 and 800.091 and 871.094 and 781.005 |  |  | 56.536 and 49 and 51.321 and 53.964 and 53 and 52.964
9 |  | N=C(N)NCCCC1NC(=O)C(CCC(N)=O)NC(=O)C(CCCNC(=N)N)NC(=O)C2CCCN2Cc2cccc(c2)-c2ccccc2CNC1=O (centres unmarked) [CY007455] |  | 15.0857 and 101.743 and 158.532 and 44.3829 |  |  | 35.786 and 28.786 and 56.25 and 44.357 and 64.929 and 56.893
10 | inactive | CN1CC(=O)NC(CCCNC(=N)N)C(=O)NC(CCC(N)=O)C(=O)NC(CCCNC(=N)N)C(=O)NCc2ccccc2-c2cccc(c2)C1 (centres unmarked) [CY007491] | increase of F508del-CFTR trafficking towards the plasma membrane | 1616.06 and 1494.72 and 1508.75 and 1545.64 |  |  | 58.5 and 35.75 and 49.393 and 59.036 and 29.929 and 21.679
11 |  | N=C(N)NCCCC1NC(=O)C(CCC(N)=O)NC(=O)C(CCCNC(=N)N)NC(=O)C2CCCN2Cc2cccc(c2)-c2ccccc2CNC1=O (centres unmarked) [CY007458] |  | 354.117 and 244.376 and 379.817 and 293.603 |  |  | 121.393 and 152.286 and 131.821 and 116.107 and 106.464 and 116.643
